Measurements as given in patent US12227480B1 (priority 2023, dated 2025).

Tests used:
[1] = tested on: Mycobacterium tuberculosis MDR strain; test: microbe, parasite or virus in culture; format: cell-based; conditions: read-out: Anti-tubercular activity against Mycobacterium tuberculosis (MIC), MDR
[2] = tested on: Mycobacterium tuberculosis XDR strain; test: microbe, parasite or virus in culture; format: cell-based; conditions: read-out: Anti-tubercular activity against Mycobacterium tuberculosis (MIC), XDR

Structure (SMILES): Cc1cc[n+](CC(=O)c2ccc(F)cc2)cc1.[Br-] [Compound 3d, 1-(2-(4-Fluorophenyl)-2-oxoethyl)-4-methylpyridin-1-ium bromide]
- MIC [1]: 8 µg/mL
- MIC [2]: 32 µg/mL
